From US20070093455A1, “10-substituted tetracyclines and methods of use thereof” (priority 2005, published 2007)
In brackets after ≈: the same amount, converted by molar mass.

Tests used:
[1] = test system: E. coli MG 1655 DWAK; assay: In vitro MIC assay, E. coli MG 1655 DWAK; format: cell-based; conditions: Escherichia coli, MG1655DWAK; broth microdilution, 35° C., 18-24 hours
Procedure: The following assay was used to determine the efficacy of tetracycline compounds against common bacteria. Serial dilutions of compounds were prepared in microdilution plates using a Tecan robotic workstation. Mueller Hinton broth cultures of gram negative and gram positive strains were grown or adjusted to match the turbidity of a 0.5 McFarland standard. 1:200 dilutions were made in appropriate broth (cation supplemented Mueller Hinton broth or Haemophilus test medium) to allow a final inoculum of 1×10^5 cfu. Lysed horse blood was used to supplement broth for testing S. pneumoniae. The plates were incubated at 35° C. in ambient air for 18-24 hours, read spectrophotometrically, and checked manually for evidence of bacterial growth. Serial dilutions of compounds were also added to Brucella agar supplemented with laked sheep blood for P. acnes tests. A standard inoculum was transferred to the plate using a stainless steel replicator. After 48 hours of anaerobic incubation at 35° C. plates were examined. The MIC was defined as the lowest concentration of the tetracycline compound that inhibits growth. Table 3 gives the MIC (μg/mL) of selected substituted tetracycline compounds against a variety of gram positive and gram negative bacteria.

[2] = test system: P. aeruginosa K1033; assay: In vitro MIC assay, P. aeruginosa K1033; format: cell-based; conditions: Pseudomonas aeruginosa, broth microdilution, 35° C., 18-24 hours
[3] = test system: P. acnes (ATCC 6919); assay: In vitro MIC assay, P. acnes (ATCC 6919); format: cell-based; conditions: Cutibacterium acnes, ATCC6919; Brucella agar with laked sheep blood, 48 hours anaerobic, 35° C.
[4] = test system: P. acnes (ATCC 1077); assay: In vitro MIC assay, P. acnes (ATCC 1077); format: cell-based; conditions: Cutibacterium acnes, ATCC1077; Brucella agar with laked sheep blood, 48 hours anaerobic, 35° C.
[5] = test system: H. influenza (ATCC 49247); assay: In vitro MIC assay, H. influenza (ATCC 49247); format: cell-based; conditions: read-out: MIC H. influenza (ATCC 49247)
[6] = test system: S. aureus MRSA5; assay: In vitro MIC assay, S. aureus MRSA5; format: cell-based; conditions: Staphylococcus aureus, broth microdilution, 35° C., 18-24 hours
[7] = test system: P. acnes (ATCC 11827); assay: In vitro MIC assay, P. acnes (ATCC 11827); format: cell-based; conditions: Cutibacterium acnes, ATCC11827; Brucella agar with laked sheep blood, 48 hours anaerobic, 35° C.
[8] = test system: P. acnes (PBS 1074); assay: In vitro MIC assay, P. acnes (PBS 1074); format: cell-based; conditions: Cutibacterium acnes; Brucella agar with laked sheep blood, 48 hours anaerobic, 35° C.
[9] = test system: S. aureus RN450; assay: In vitro MIC assay, S. aureus RN450; format: cell-based; conditions: Staphylococcus aureus, broth microdilution, 35° C., 18-24 hours
[10] = test system: B. theraiotaomicron (ATCC 29741); assay: In vitro MIC assay, B. theraiotaomicron (ATCC 29741); format: cell-based
[11] = test system: S. aureus RN4250; assay: In vitro MIC assay, S. aureus RN4250; format: cell-based; conditions: Staphylococcus aureus, broth microdilution, 35° C., 18-24 hours
[12] = test system: B. fragilis (ATCC 25285); assay: In vitro MIC assay, B. fragilis (ATCC 25285); format: cell-based; conditions: Bacteroides fragilis, ATCC25285
[13] = test system: COS-1 or CHO cell; assay: Mammalian cell cytotoxicity assay (Resazurin; Alamar Blue); format: cell-based; conditions: COS-1 or CHO cells, 24 hour incubation
Procedure: To predict the in vivo risks associated with the compounds of the invention, a soluble, non-toxic redox dye (“Resazurin”; Alamar Blue) was used to assess a compound's effect on cellular metabolism. COS-1 or CHO cell suspensions were prepared, seeded into 96-well black-walled microtiter plates, and incubated overnight at 37° C., in 5% CO2 and approximately 95% humidity. On the next day, serial dilutions of test drug were prepared and transferred to cell plates. Following a 24 hour incubation period, the media/drug was aspirated, and 50 μL of resazurin was added. After a 2 hour incubation, fluorescence measurements were taken (excitation […], emission 590 nm) and toxic effects in treated versus control cells were compared based on the degree of fluorescence in each well.

[14] = test system: S. pneumoniae 157E; assay: In vitro MIC assay, S. pneumoniae 157E; format: cell-based; conditions: Streptococcus pneumoniae, broth supplemented with lysed horse blood, 35° C., 18-24 hours
[15] = test system: P. acnes (PBS 1073); assay: In vitro MIC assay, P. acnes (PBS 1073); format: cell-based; conditions: Cutibacterium acnes; Brucella agar with laked sheep blood, 48 hours anaerobic, 35° C.
[16] = test system: E. coli (ATCC 25922); assay: In vitro MIC assay, E. coli (ATCC 25922); format: cell-based; conditions: Escherichia coli, ATCC25922; broth microdilution, 35° C., 18-24 hours
[17] = test system: Mouse 3T3 fibroblast cells; assay: Phototoxicity assay (neutral red); format: cell-based; conditions: 3T3 cells
Procedure: Mouse 3T3 fibroblast cells were harvested and plated at a concentration of 1×10^5 cells/mL. Drug dilutions were made in HBSS and added to the plates. Duplicate plates were then incubated in the dark (for controls), or under UV light (meter reading of 1.6-1.8 mW/cm^2) for 50 minutes. Cells were then washed with HBSS, fresh medium was added, and plates were then incubated overnight. The following day, neutral red was added as an indicator of cell viability and plates were incubated for an additional 3 hours. Cells were then washed with HBSS and a solution of 50% EtOH, 10% glacial acetic acid is added. After a 20 minute incubation period, plates absorbance at 535 nm were read using a Wallac Victor 5 spectrophotometer. The phototoxicity in light-treated and control cultures was then compared.

[18] = test system: P. acnes (PBS 994); assay: In vitro MIC assay, P. acnes (PBS 994); format: cell-based; conditions: Cutibacterium acnes; Brucella agar with laked sheep blood, 48 hours anaerobic, 35° C.
[19] = test system: P. acnes (PBS 1080); assay: In vitro MIC assay, P. acnes (PBS 1080); format: cell-based; conditions: Cutibacterium acnes; Brucella agar with laked sheep blood, 48 hours anaerobic, 35° C.
[20] = test system: E. coli translation; assay: In vitro translation assay for inhibition of bacterial protein synthesis (E. coli S30 Extract System, luciferase); format: biochemical; conditions: 37° C., 1 hour, luciferase luminescence
Procedure: As a further measure of antibacterial activity, an E. coli S30 Extract System was used to quantitate inhibition of E. coli translation by tetracycline derivatives. This system contained all required components for translation, including a nucleic acid template which, when translated, produces functional luciferase. The reactions were set up with E. coli S30 extract, amino acids, DNA template and selected tetracycline compounds at concentrations of 100, 50, 25, 10, 5, and 1 μg/ml. The reactions were incubated at 37° C. for 1 hour and analyzed by adding the reaction mix to Steady-Glo Luciferase Assay substrate (Promega, Madison Wis.). Luminescence was measured with the Wallac Victor5 plate reader and inhibition is calculated by comparing luciferase activity in experimental reactions versus controls.

[21] = test system: P. granulosum (PBS 1048); assay: In vitro MIC assay, P. granulosum (PBS 1048); format: cell-based
[22] = test system: P. granulosum (PBS 1098); assay: In vitro MIC assay, P. granulosum (PBS 1098); format: cell-based
[23] = test system: carrageenan induced paw edema; assay: Rat model of carrageenan induced paw edema; format: in vivo; conditions: 3 hours after carrageenan injection
Procedure: Carrageenan-induced paw edema represents a commonly used experimental model to assess the anti-inflammatory properties of agents. In this example, male Sprague-Dawley rats (Charles River, Mass.) weighing 175-250 grams were used. Test compounds were administered intraperitoneally 5 minutes or orally 15 minutes before a subplantar injection of carrageenan (5 mg/1 ml) in the rat right hind paw. The paw volume (ml) was monitored with a plethysmometer (Water Plethysmometer) at time of carrageenan injection (baseline) and 3 hours after carrageenan injection. […] Both results were statistically significant with a p<0.1 level by Kruskal-Wallis One Way ANOVA, ChiSquare. There were approximately four rats per group.

Row | Structure (SMILES) | MIC [1] [µg/mL] | MIC [2] [µg/mL] | MIC [3] [µg/mL] | MIC [4] [µg/mL] | MIC [5] [µg/mL] | MIC [6] [µg/mL] | MIC [7] [µg/mL] | MIC [8] [µg/mL] | MIC [9] [µg/mL] | MIC [10] [µg/mL] | MIC [11] [µg/mL] | MIC [12] [µg/mL] | cytotoxicity at 75 μg/mL [13] | MIC [14] [µg/mL] | MIC [15] [µg/mL] | MIC [16] [µg/mL] | phototoxicity at 150 μM, incubated in the dark [17] | also measured
1 | CC(=O)c1cccc2c1CC1CC3[C@@H](N(C)C)C(O)=C(C(N)=O)C(=O)[C@@]3(O)C(O)=C1C2=O (stereo partly drawn) [I] | 0 to 21 | 0 to 21 | 0 to 8 | 28 to 32 (≈ 63.6 to 72.7 µM) | 0 to 21 | 0 to 21 | 0 to 8 | 28 to 32 (≈ 63.6 to 72.7 µM) | 0 to 21 | 28 to 32 (≈ 63.6 to 72.7 µM) | 0 to 21 | 0 to 8 | minimal cytotoxicity | 0 to 21 | 28 to 32 (≈ 63.6 to 72.7 µM) | 22 to 43 (≈ 49.9 to 97.6 µM) | not to be appreciably phototoxic | phototoxicity at 30 μM, incubated in the UV light ([17]; UV light 1.6-1.8 mW/cm^2, 30 μM): minimally phototoxic
2 | CN(C)c1cccc2c1CC1CC3[C@H](N(C)C)C(O)=C(C(N)=O)C(=O)[C@@]3(O)C(O)=C1C2=O (stereo partly drawn) [Compound A] | 0 to 21 | 0 to 21 | 0 to 8 | 9 to 27 (≈ 20.4 to 61.2 µM) | 22 to 43 (≈ 49.8 to 97.4 µM) | 44 to 64 (≈ 99.7 to 145 µM) | 0 to 8 | 9 to 27 (≈ 20.4 to 61.2 µM) | 0 to 21 | 9 to 27 (≈ 20.4 to 61.2 µM) | 0 to 21 | 0 to 8 | minimal cytotoxicity | 0 to 21 | 9 to 27 (≈ 20.4 to 61.2 µM) | 22 to 43 (≈ 49.8 to 97.4 µM) | not to be appreciably phototoxic | MIC [18]: 9 to 27 µg/mL (≈ 20.4 to 61.2 µM); MIC [19]: 9 to 27 µg/mL (≈ 20.4 to 61.2 µM); IC20 [20]: > 100 µM; IC50 [20]: > 100 µM; MIC [21]: 9 to 27 µg/mL (≈ 20.4 to 61.2 µM); MIC [22]: 9 to 27 µg/mL (≈ 20.4 to 61.2 µM); decrease in paw inflammation relative to the untreated control ([23]; 75 mg/kg IP): 60%
3 | CN(C)c1ccc(O)c2c1C[C@H]1C[C@H]3[C@H](N(C)C)C(O)=C(C(N)=O)C(=O)[C@@]3(O)C(O)=C1C2=O [Minocycline, reference compound] |  |  |  |  |  |  |  |  |  |  |  |  |  |  |  |  |  | reduced inflammation relative to the untreated control ([23]; 50 mg/kg IP, positive control): 70%
4 | CC(=O)c1cccc2c1CC1CC3[C@H](N(C)C)C(O)=C(C(N)=O)C(=O)[C@@]3(O)C(O)=C1C2=O (stereo partly drawn) [J] | 0 to 21 | 0 to 21 | 0 to 8 | 28 to 32 (≈ 63.6 to 72.7 µM) | 0 to 21 | 0 to 21 | 0 to 8 | 28 to 32 (≈ 63.6 to 72.7 µM) | 0 to 21 | 28 to 32 (≈ 63.6 to 72.7 µM) | 0 to 21 | 0 to 8 | minimal cytotoxicity | 0 to 21 | 28 to 32 (≈ 63.6 to 72.7 µM) | 0 to 21 | not to be appreciably phototoxic | 
